Test results from PubChem BioAssay (NCI).
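Exposure lasted 48 hours, with cells grown in 96-well plates and compounds tested at five concentrations. TGI is the concentration that stops growth completely.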

Assays:
Test in all cases: inhibition of tumour cell growth, NCI panel, 48 h
SK-OV-3 ovarian = test system: SK-OV-3 ovarian
OVCAR-5 ovarian = test system: OVCAR-5 ovarian
SR leukemia = test system: SR leukemia
KM12 colon = test system: KM12 colon
EKVX NSCLC = test system: EKVX NSCLC
HT29 colon = test system: HT29 colon
RXF 393 renal = test system: RXF 393 renal
UACC-257 melanoma = test system: UACC-257 melanoma
ACHN renal = test system: ACHN renal
NCI-H460 lung = test system: NCI-H460 lung

Molecule C1=CCN(c2ccccc2)CC1 has a TGI (SK-OV-3 ovarian) greater than 100 µM, a TGI (OVCAR-5 ovarian) greater than 100 µM and a TGI (SR leukemia) greater than 100 µM. For the same molecule, the TGI (KM12 colon) was greater than 100 µM, the TGI (EKVX NSCLC) was greater than 100 µM and the TGI (HT29 colon) was 87.3 µM. The TGI (RXF 393 renal) was 35.7 µM, the TGI (UACC-257 melanoma) was greater than 100 µM and the TGI (ACHN renal) was 56.8 µM. The TGI (NCI-H460 lung) was greater than 100 µM.
For Cc1nc2ccccc2nc1NS(=O)(=O)c1ccc(N)cc1, the TGI (OVCAR-5 ovarian) was greater than 100 µM, the TGI (SR leukemia) was greater than 100 µM and the TGI (KM12 colon) was greater than 100 µM. The TGI (EKVX NSCLC) was greater than 100 µM, the TGI (HT29 colon) was greater than 100 µM and the TGI (RXF 393 renal) was greater than 100 µM. It also gave a TGI (UACC-257 melanoma) greater than 100 µM and a TGI (ACHN renal) greater than 100 µM.
Work on NN/C(=N\S(=O)(=O)c1cc(Cl)c(Oc2ccc([N+](=O)[O-])cc2Cl)c(Cl)c1)Nc1ccc(Cl)cc1 yielded a TGI (SK-OV-3 ovarian) greater than 100 µM, a TGI (OVCAR-5 ovarian) of 55 µM and a TGI (SR leukemia) of 57.7 µM. For the same molecule, the TGI (KM12 colon) was 42.1 µM, the TGI (EKVX NSCLC) was 61.2 µM and the TGI (HT29 colon) was 39.1 µM. The TGI (RXF 393 renal) was 28.4 µM, the TGI (UACC-257 melanoma) was 34.6 µM and the TGI (ACHN renal) was 67.4 µM. The TGI (NCI-H460 lung) was 31.9 µM.
O=C(CCN(CCO)CCO)Nc1ccc2c(c1)C(=O)c1ccc(NC(=O)CCN(CCO)CCO)cc1C2=O gave a TGI (SK-OV-3 ovarian) greater than 100 µM, a TGI (OVCAR-5 ovarian) greater than 100 µM and a TGI (SR leukemia) greater than 100 µM. For the same molecule, the TGI (KM12 colon) was 31.2 µM, the TGI (EKVX NSCLC) was 55 µM and the TGI (HT29 colon) was greater than 100 µM. The TGI (RXF 393 renal) was 79.4 µM, the TGI (UACC-257 melanoma) was greater than 100 µM and the TGI (ACHN renal) was greater than 100 µM. The TGI (NCI-H460 lung) was 22.7 µM.
CCOc1ccc(NCC(=O)N2CC(=O)Nc3ccccc32)cc1 was tested, and the TGI (SK-OV-3 ovarian) was greater than 100 µM, the TGI (OVCAR-5 ovarian) was greater than 100 µM and the TGI (SR leukemia) was greater than 100 µM. The TGI (KM12 colon) was greater than 100 µM, the TGI (EKVX NSCLC) was greater than 100 µM and the TGI (HT29 colon) was greater than 100 µM. For the same molecule, the TGI (RXF 393 renal) was greater than 100 µM, the TGI (UACC-257 melanoma) was greater than 100 µM and the TGI (ACHN renal) was greater than 100 µM. For the same molecule, the TGI (NCI-H460 lung) was greater than 100 µM.
CCCCOC(=O)/C(CC(=O)C=C(C)C)=N\NS(=O)(=O)c1ccc(C)cc1 was tested, and the TGI (SK-OV-3 ovarian) was greater than 100 µM, the TGI (OVCAR-5 ovarian) was greater than 100 µM and the TGI (SR leukemia) was 71.8 µM. It also gave a TGI (KM12 colon) greater than 100 µM, a TGI (EKVX NSCLC) greater than 100 µM and a TGI (HT29 colon) greater than 100 µM. For the same molecule, the TGI (RXF 393 renal) was greater than 100 µM, the TGI (UACC-257 melanoma) was greater than 100 µM and the TGI (ACHN renal) was greater than 100 µM. For the same molecule, the TGI (NCI-H460 lung) was greater than 100 µM.
CCN(CC)CCCCC1CCN(CC(=O)N2c3ccccc3NC(=O)c3ccccc32)CC1 was tested, and the TGI (SK-OV-3 ovarian) was greater than 100 µM, the TGI (SR leukemia) was greater than 100 µM and the TGI (KM12 colon) was greater than 100 µM. It also gave a TGI (EKVX NSCLC) greater than 100 µM, a TGI (HT29 colon) greater than 100 µM and a TGI (UACC-257 melanoma) greater than 100 µM.
For CC(=O)Nc1ccc(-c2nnc(SCC(=O)Nc3ccccc3Cl)o2)cc1, the TGI (SK-OV-3 ovarian) was greater than 100 µM, the TGI (OVCAR-5 ovarian) was greater than 100 µM and the TGI (KM12 colon) was greater than 100 µM. It also gave a TGI (HT29 colon) greater than 100 µM, a TGI (RXF 393 renal) greater than 100 µM and a TGI (UACC-257 melanoma) greater than 100 µM. For the same molecule, the TGI (ACHN renal) was greater than 100 µM and the TGI (NCI-H460 lung) was greater than 100 µM.
COc1ccc(/C=C2/C(=O)N(C(=O)c3ccc(Cl)cc3)N=C2C)cc1OC was tested, and the TGI (SK-OV-3 ovarian) was greater than 100 µM, the TGI (OVCAR-5 ovarian) was greater than 100 µM and the TGI (KM12 colon) was greater than 100 µM. The TGI (EKVX NSCLC) was greater than 100 µM, the TGI (HT29 colon) was greater than 100 µM and the TGI (UACC-257 melanoma) was greater than 100 µM. For the same molecule, the TGI (ACHN renal) was greater than 100 µM and the TGI (NCI-H460 lung) was greater than 100 µM.
